According to patent US10358463B2, “Immunomodulators” (BRISTOL-MYERS SQUIBB COMPANY, priority 2016, dated 2019):
Numbered stars: 1 amine (or outer) side, 2 acyl side, 3 side chain; on linkers, the order of the positions; unused ones are H or OH. Bridge positions count the residues as written; N and C are the ends. Square brackets hold non-standard residues; d marks the D form. Peptide text beside a SMILES is read from it. ξ: configuration not given here. Trp(7-aza,1-CH2COOH) = N[C@@H](Cc1cn(CC(=O)O)c2ncccc12)C(=O)O; X10 = COc1ccc2c(c1)c(C[C@H](N[*:1])C(=O)[*:2])cn2CC(=O)O; Ala(4-isoquinolinyl) = N[C@@H](Cc1cncc2ccccc12)C(=O)O; X5 = O=C(O)Cn1nc(C[C@H](N[*:1])C(=O)[*:2])c2ccccc21; X7 = O=C(O)Cc1nc(C[C@H](N[*:1])C(=O)[*:2])n2ccccc12; Trp(5-CN) = N#Cc1ccc2[nH]cc(C[C@H](N)C(=O)O)c2c1; Hyp = O=C(O)[C@@H]1C[C@@H](O)CN1; NMeNle = CCCC[C@H](NC)C(=O)O; NMeA = CN[C@@H](C)C(=O)O; Dab = NCC[C@H](N)C(=O)O; Dap = NC[C@H](N)C(=O)O; ξP = O=C(O)C1CCCN1

Molecular target: T1, PD-1-Ig binding to PD-L1-TVMV-His (PD-L1-His) (Homo sapiens, UniProt Q9NZQ7)
T1 construct: hPDL1 (19-239)-TVMV-His; TVMV protease cleavage site (C); made in house; host or cells: HEK293T cells
T1 sequence (Q9NZQ7 with tags, fused parts or gaps): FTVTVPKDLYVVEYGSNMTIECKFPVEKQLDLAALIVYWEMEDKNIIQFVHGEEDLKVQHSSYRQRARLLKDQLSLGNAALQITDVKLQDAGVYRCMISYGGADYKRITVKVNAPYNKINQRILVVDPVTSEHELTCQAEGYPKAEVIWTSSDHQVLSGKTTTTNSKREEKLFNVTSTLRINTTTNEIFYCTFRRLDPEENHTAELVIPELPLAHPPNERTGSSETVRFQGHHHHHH
Experiment: PD-1/PD-L1 Homogenous Time-Resolved Fluorescence (HTRF) binding assay
Settings: PD-1-Ig (20 nM)/PD-L1-His (10 nM); range class
From the text: The ability of the macrocyclic peptides of the present disclosure to bind to PD-L1 was investigated using a PD-1/PD-L1 Homogenous Time-Resolved Fluorescence (HTRF) binding assay.
Homogenous Time-Resolved Fluorescence (HTRF) Assays of Binding of Soluble PD-1 to Soluble PD-L1. Soluble PD-1 and soluble PD-L1 refers to proteins with carboxyl-end truncations that remove the transmembrane-spanning regions and are fused to heterologous sequences, specifically the Fc portion of the human immunoglobuling G sequence (Ig) or the hexahistidine epitope tag (His). All binding studies were performed in an HTRF assay buffer consisting of dPBS supplemented with 0.1% (w/v) bovine serum albumin and 0.05% (v/v) Tween-20. For the PD-1-Ig/PD-L1-His binding assay, inhibitors were pre-incubated with PD-L1-His (10 nM final) for 15 m in 4 μl of assay buffer, followed by addition of PD-1-Ig (20 nM final) in 1 μl of assay buffer and further incubation for 15 m. PD-L1 fusion proteins from either human, cynomologous macaques, mouse, or other species were used. HTRF detection was achieved using europium crypate-labeled anti-Ig monoclonal antibody (1 nM final) and allophycocyanin (APC) labeled anti-His monoclonal antibody (20 nM final). Antibodies were diluted in HTRF detection buffer and 5 μl was dispensed on top of binding reaction. The reaction was allowed to equilibrate for 30 minutes and signal (665 nm/620 nm ratio) was obtained using an EnVision fluorometer. Additional binding assays were established between PD-1-Ig/PD-L2-His (20 and 5 nM, respectively), CD80-His/PD-L1-Ig (100 and 10 nM, respectively) and CD80-His/CTLA4-Ig (10 and 5 nM, respectively). Binding/competition studies between biotinylated Compound No. 71 and human PD-L1-His were performed as follows. Macrocyclic peptide inhibitors were pre-incubated with PD-L1-His (10 nM final) for 60 minutes in 4 μl of assay buffer followed by addition of biotinylated Compound No. 71 (0.5 nM final) in 1 μl of assay buffer. Binding was allowed to equilibrate for 30 minutes followed by addition of europium crylated labeled Streptavidin (2.5 pM final) and APC-labeled anti-His (20 nM final) in 5 μl of HTRF buffer. The reaction was allowed to equilibrate for 30 m and signal (665 nm/620 nm ratio) was obtained using an EnVision fluorometer.
Recombinant Proteins. Carboxyl-truncated human PD-1 (amino acids 25-167) with a C-terminal human Ig epitope tag [hPD-1 (25-167)-3S-IG] and human PD-L1 (amino acids 18-239) with a C-terminal His epitope tag [hPD-L1(19-239)-tobacco vein mottling virus protease cleavage site (TVMV)-His] were expressed in HEK293T cells and purified sequentially by recombinant Protein A affinity chromatography and size exclusion chromatography. Human PD-L2-His (Sino Biologicals), CD80-His (Sino Biologicals), CTLA4-Ig (RnD Systems) were all obtained through commercial sources.

Row | IC50 [nM] | SMILES
1 | 10 to 99 | CCCC[C@H]1C(=O)N(C)[C@@H](CCCC)C(=O)N[C@@H](CC(C)C)C(=O)N[C@H](C(=O)NCC(N)=O)CSCC(=O)N[C@@H](Cc2ccc(O)cc2)C(=O)N(C)[C@@H](C)C(=O)N[C@@H](CC(N)=O)C(=O)N2CCC[C@H]2C(=O)N[C@@H](CN)C(=O)N[C@@H](CC(C)C)C(=O)N2C[C@H](O)C[C@H]2C(=O)N[C@@H](Cc2c[nH]c3ccccc23)C(=O)N[C@@H](CCN)C(=O)N[C@@H](Cc2cn(CC(=O)O)c3ncccc23)C(=O)N1C [Example 10505] ({CH2CO}-Y[NMeA]NP[Dap]L[Hyp]W[Dab][Trp(7-aza,1-CH2COOH)][NMeNle][NMeNle]LCG-NH2; thioether N-14)
2 | 1 to 9.9 | CCCC[C@H]1C(=O)N(C)[C@@H](CCCC)C(=O)N[C@@H](CC(C)C)C(=O)N[C@H](C(=O)NCC(N)=O)CSCC(=O)N[C@@H](Cc2ccc(O)cc2)C(=O)N(C)[C@@H](C)C(=O)N[C@@H](CC(N)=O)C(=O)N2CCC[C@H]2C(=O)N[C@@H](CN)C(=O)N[C@@H](CC(C)C)C(=O)N2C[C@H](O)C[C@H]2C(=O)N[C@@H](Cc2c[nH]c3ccccc23)C(=O)N[C@@H](CCN)C(=O)N[C@@H](Cc2nn(CC(=O)O)c3ccccc23)C(=O)N1C [Example 10500] ({CH2CO}-Y[NMeA]NP[Dap]L[Hyp]W[Dab][X5][NMeNle][NMeNle]LCG-NH2; thioether N-14)
3 | 1 to 9.9 | CCCC[C@H]1C(=O)N(C)[C@@H](CCCC)C(=O)N[C@@H](CC(C)C)C(=O)N[C@H](C(N)=O)CSCC(=O)N[C@@H](Cc2ccc(O)cc2)C(=O)N(C)[C@@H](C)C(=O)N[C@@H](CC(N)=O)C(=O)N2CCC[C@H]2C(=O)N[C@@H](CN)C(=O)N[C@@H](CC(C)C)C(=O)N2C[C@H](O)C[C@H]2C(=O)N[C@@H](Cc2c[nH]c3ccccc23)C(=O)N[C@@H](CCN)C(=O)N[C@@H](Cc2cn(CC(=O)O)c3ccc(OC)cc23)C(=O)N1C [Example 10503] ({CH2CO}-Y[NMeA]NP[Dap]L[Hyp]W[Dab][X10][NMeNle][NMeNle]LC-NH2; thioether N-14)

More lines, now with the values behind:

Row | SMILES | IC50 [nM]
4 | CCCC[C@H]1C(=O)N(C)[C@@H](CCCC)C(=O)N[C@@H](CC(C)C)C(=O)N[C@H](C(=O)NCC(N)=O)CSCC(=O)N[C@@H](Cc2ccc(O)cc2)C(=O)N(C)[C@@H](C)C(=O)N[C@@H](CC(N)=O)C(=O)N2CCC[C@H]2C(=O)N[C@@H](CN)C(=O)N[C@@H](CC(C)C)C(=O)N2C[C@H](O)C[C@H]2C(=O)N[C@@H](Cc2c[nH]c3ccccc23)C(=O)N[C@@H](CCN)C(=O)N[C@@H](Cc2nc(CC(=O)O)c3ccccn23)C(=O)N1C [Example 1017] ({CH2CO}-Y[NMeA]NP[Dap]L[Hyp]W[Dab][X7][NMeNle][NMeNle]LCG-NH2; thioether N-14) | 1 to 9.9
5 | CCCC[C@H]1C(=O)N(C)[C@@H](CCCC)C(=O)N[C@@H](CCCNC(=N)N)C(=O)N[C@H](C(=O)NCC(N)=O)CSCC(=O)N[C@@H](Cc2ccc(O)cc2)C(=O)N(C)[C@@H](C)C(=O)N[C@@H](CC(N)=O)C(=O)N2CCC[C@H]2C(=O)N[C@@H](Cc2cnc[nH]2)C(=O)N[C@@H](CC(C)C)C(=O)N2C[C@H](O)C[C@H]2C(=O)N[C@@H](Cc2c[nH]c3ccccc23)C(=O)N[C@@H](CO)C(=O)N[C@@H](Cc2cncc3ccccc23)C(=O)N1C [Example 1254] ({CH2CO}-Y[NMeA]NPHL[Hyp]WS[Ala(4-isoquinolinyl)][NMeNle][NMeNle]RCG-NH2; thioether N-14) | 10 to 99
6 | CCCC[C@H]1C(=O)N(C)[C@@H](CCCC)C(=O)N[C@@H](C)C(=O)N[C@H](C(=O)NCC(N)=O)CSCC(=O)N[C@@H](Cc2ccc(O)cc2)C(=O)N(C)[C@@H](C)C(=O)N[C@@H](CC(N)=O)C(=O)N2CCCC2C(=O)N[C@@H](Cc2cnc[nH]2)C(=O)N[C@@H](CCC(N)=O)C(=O)N2C[C@H](O)C[C@H]2C(=O)N[C@@H](Cc2c[nH]c3ccccc23)C(=O)N[C@@H](CO)C(=O)N[C@@H](Cc2c[nH]c3ccc(C#N)cc23)C(=O)N1C (stereo partly drawn) [Example 1284] ({CH2CO}-Y[NMeA]N[ξP]HQ[Hyp]WS[Trp(5-CN)][NMeNle][NMeNle]ACG-NH2; thioether N-14) | 100 to 990
